Test results: publication PMC6493727, “FluoroCellTrack: An algorithm for automated analysis of high-throughput droplet microfluidic data” (PLoS ONE, 2019)

Test system: OPM-2 cells
Assay: Dose response of single OPM-2 cells to Bortezomib, live/dead staining in a droplet trapping array
Format: cell-based
Conditions: for Dead Cells / Live Cells: Calcein AM/EthD-1 staining; for Dead Cells / Live Cells / Overlapping Cells: FluoroCellTrack automated count, n=787 droplets
Excerpt: First, a mask was generated by detecting differently colored cells from the input image, Fig 3A. This mask (Fig 3B) was overlapped with the input image and was subjected to edge detection, dilation and erosion to yield Fig 3C, which was then segmented through random walker algorithm to detect and distinguish attached cells. Random walker segmentation algorithm was used over traditional watershed algorithm due to its highly precise probabilistic interpretation of local maxima (Fig 3D). The distinguished contours from this image were then filtered for area, where cellular area equal to or greater than 130 pixels were outlined and labeled as shown in Fig 3E. 130 was selected as the thresholding value due to the mean cellular area being ~140 pixels. This step was essential to exclude debris to eliminate false positives. However, in case of co-culture platforms, where primary cells are of the same size as that of the secondary cells, or in systems where the debris is of the same size as that of the cells, specific cellular or organelle staining can be used to distinguish these features and the extensive palette used in computer vision aids in easy detection of such features. […] For instance, similar features with slight deviations in shape, size and orientation were easily detected by the droplet/contour detection steps of FluoroCellTrack but would need a repository of many templates while using the template matching feature, showing that the latter can be highly uneconomical. The broad palette of colors in computer vision can be exploited here to detect any fluorescent cell and as an example here, the contour detection step was implemented to quantify actual cellular viability data as shown in Fig 4. Lower [B, G, R]: [0, 51, 0] and upper [B, G, R]: [153, 255, 153] boundaries were given for live cells and, dead cells were identified with the lower and upper color boundaries at; [153, 153, 255] while overlapping cells were identified with lower and upper color boundaries of [0, 51, 51]; [153, 255, 255]. Cells with overlapping signals in both the green and red filter sets represent cells with compromised plasma membranes (indicative of a dead cell), but with remaining esterase activity to react with the Calcein AM. These cells were noted as ‘dying’ cells to distinguish them from the clean live and dead signals using the other contour boundaries. The contours with specific colors were detected from the input images, where the positively detected live, dead and overlapping cells with an area equal to or greater than 130 pixels were outlined with distinct colors: live cells in red, dead cells in blue and overlapping cells in purple (Fig 4). The outlined cell-center map was overlaid with the droplet center map and scanned to fit within 25<R<50-micron values (denoted by white arrows), to account for single/multiple cell encapsulation information as shown in the output data of Fig 4. This step was essential to calculate the single-cell encapsulation efficiency and to eliminate cells that were freely floating in the device, thus including cells that were only inside the droplets. Additionally, the user can easily eliminate the droplet detection step to use this contour detection as a stand-alone platform (similar to ImageJ and Cell Profiler) to detect and quantify properties of fluorescent cells from other microfluidic or non-microfluidic applications. The advantage of FluoroCellTrack over current software tools like ImageJ and Cell Profiler lies in the fact that the former can be employed in non-droplet microfluidic platforms in addition to droplet microfluidics, but the latter cannot be used to quantify high-throughput droplet microfluidic data.
An important application of any automated platform is to count cells and sort them based on their fluorescent response. As an example, the dose-dependent single cell response of OPM-2 cells to a clinical inhibitor, Bortezomib was observed. […]

SMILES: CC(C)C[C@H](NC(=O)[C@H](Cc1ccccc1)NC(=O)c1cnccn1)B(O)O [BTZ, Bortezomib]
- Dead Cells (1 nM BTZ, Day 1 (24 h)): 5
- Live Cells (1 nM BTZ, Day 1 (24 h)): 311
- Overlapping Cells (1 nM BTZ, Day 1 (24 h), overlapping = dying cells (green and red signal)): 28
- Dead Cells (1 nM BTZ, Day 2 (48 h)): 10
- Live Cells (1 nM BTZ, Day 2 (48 h)): 53
- Overlapping Cells (1 nM BTZ, Day 2 (48 h), overlapping = dying cells): 45
- Dead Cells (1 nM BTZ, Day 3 (72 h)): 53
- Live Cells (1 nM BTZ, Day 3 (72 h)): 140
- Overlapping Cells (1 nM BTZ, Day 3 (72 h), overlapping = dying cells): 206
- viability of single OPM-2 cells (1 nM, 10 nM and 100 nM, 24 h, 48 h and 72 h incubation): decrease in viability at increasing concentrations and incubation times
- Dead Cells (10 nM BTZ, Day 1 (24 h)): 5
- Live Cells (10 nM BTZ, Day 1 (24 h)): 49
- Overlapping Cells (10 nM BTZ, Day 1 (24 h), overlapping = dying cells): 38
- Dead Cells (10 nM BTZ, Day 2 (48 h)): 67
- Live Cells (10 nM BTZ, Day 2 (48 h)): 15
- Overlapping Cells (10 nM BTZ, Day 2 (48 h), overlapping = dying cells): 113
- Dead Cells (10 nM BTZ, Day 3 (72 h)): 92
- Live Cells (10 nM BTZ, Day 3 (72 h)): 0
- Overlapping Cells (10 nM BTZ, Day 3 (72 h), overlapping = dying cells): 107
- Dead Cells (100 nM BTZ, Day 1 (24 h)): 75
- Live Cells (100 nM BTZ, Day 1 (24 h)): 0
- Overlapping Cells (100 nM BTZ, Day 1 (24 h), overlapping = dying cells): 100
- Dead Cells (100 nM BTZ, Day 2 (48 h)): 320
- Live Cells (100 nM BTZ, Day 2 (48 h)): 3
- Overlapping Cells (100 nM BTZ, Day 2 (48 h), overlapping = dying cells): 149
- Dead Cells (100 nM BTZ, Day 3 (72 h)): 108
- Live Cells (100 nM BTZ, Day 3 (72 h)): 0
- Overlapping Cells (100 nM BTZ, Day 3 (72 h), overlapping = dying cells): 17
